From article PMC6222292 (Computational and Structural Biotechnology Journal, 2018)

Molecular target: T1, soluble epoxide hydrolase (sEH) (Homo sapiens, UniProt P34913)
T1 sequence (P34913 1-555): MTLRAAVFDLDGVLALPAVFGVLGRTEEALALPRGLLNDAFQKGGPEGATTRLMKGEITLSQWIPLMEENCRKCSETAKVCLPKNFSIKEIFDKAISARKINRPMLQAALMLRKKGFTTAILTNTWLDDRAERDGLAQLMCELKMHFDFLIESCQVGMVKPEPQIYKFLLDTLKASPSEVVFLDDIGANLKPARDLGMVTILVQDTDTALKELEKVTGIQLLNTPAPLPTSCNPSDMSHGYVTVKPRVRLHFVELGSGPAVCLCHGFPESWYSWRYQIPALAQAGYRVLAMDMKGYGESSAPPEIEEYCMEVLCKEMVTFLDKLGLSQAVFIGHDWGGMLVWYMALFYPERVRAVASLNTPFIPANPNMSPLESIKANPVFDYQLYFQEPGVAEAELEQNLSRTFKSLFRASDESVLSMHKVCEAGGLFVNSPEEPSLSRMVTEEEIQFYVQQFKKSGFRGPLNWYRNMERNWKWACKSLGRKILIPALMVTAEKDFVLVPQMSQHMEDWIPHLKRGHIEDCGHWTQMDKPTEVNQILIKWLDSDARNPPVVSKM
Assay: fluorescent PHOME hydrolysis assay
Type: biochemical

Structure (SMILES) | IC50
O=C(/C=C/c1ccc(O)cc1)NCCc1ccc(O)cc1 [compound 1, N-trans-coumaroyltyramine] | 9 ± 0.8 µM
COc1cc(/C=C/C(=O)NCCc2ccc(O)cc2)ccc1O [compound 2, N-trans-feruloyltyramine] | 10.4 ± 1.1 µM
